Data from the CheMixHub ionic liquid set.

Assay: xn = mol fraction of the nth substance listed

CCCCCCCCCCCCCCCC[n+]1ccccc1.O=C([O-])C(O)c1ccccc1 + NCC(=O)NCC(=O)O + O
electrical conductivity [S/m], 101 kPa
Details	293.15 K	298.15 K	303.15 K	308.15 K	313.15 K
x1 = 1.08e-06, x2 = 0	0.00061	0.00068	0.00076	0.00083	0.0009
x1 = 1.09e-06, x2 = 0.001799	0.00287	0.00346	0.00413	0.0049	0.0058
x1 = 1.27e-06, x2 = 0.0009002	0.00184	0.0022	0.0026	0.0031	0.0036
x1 = 1.98e-06, x2 = 0	0.001	0.0012	0.0013	0.0014	0.0016
x1 = 2.19e-06, x2 = 0.001799	0.00326	0.00391	0.0046	0.0054	0.0064
x1 = 2.36e-06, x2 = 0.0009002	0.00226	0.00268	0.0031	0.0036	0.0042
x1 = 2.88e-06, x2 = 0	0.00147	0.0016	0.0018	0.002	0.0022
x1 = 3.26e-06, x2 = 0.0009002	0.00264	0.0031	0.0036	0.0042	0.0048
x1 = 3.46e-06, x2 = 0.001799	0.00367	0.00438	0.0051	0.006	0.007
x1 = 3.96e-06, x2 = 0	0.0019	0.0022	0.0024	0.0026	0.0029
x1 = 4.17e-06, x2 = 0.0009002	0.00301	0.0035	0.004	0.0046	0.0053
x1 = 4.56e-06, x2 = 0.001799	0.00407	0.00482	0.0056	0.0066	0.0076
x1 = 4.69e-06, x2 = 0	0.0023	0.0026	0.0029	0.0031	0.0035
x1 = 5.44e-06, x2 = 0.0009002	0.00346	0.004	0.0046	0.0053	0.006
x1 = 5.47e-06, x2 = 0.001799	0.00441	0.00521	0.0061	0.007	0.0082
x1 = 5.95e-06, x2 = 0	0.00281	0.0032	0.0035	0.0038	0.0042
x1 = 6.89e-06, x2 = 0.0009002	0.00401	0.00464	0.0053	0.006	0.0069
x1 = 6.93e-06, x2 = 0.001799	0.00487	0.00571	0.0066	0.0077	0.0089
x1 = 7.21e-06, x2 = 0	0.00341	0.0038	0.0042	0.0046	0.0051
x1 = 8.34e-06, x2 = 0.0009002	0.00451	0.0052	0.0059	0.0068	0.0077
x1 = 8.38e-06, x2 = 0.001799	0.00536	0.00626	0.0072	0.0084	0.0097
x1 = 8.83e-06, x2 = 0	0.00406	0.0046	0.005	0.0055	0.006
x1 = 9.97e-06, x2 = 0.0009002	0.00504	0.00579	0.0066	0.0075	0.0085
x1 = 1.002e-05, x2 = 0.001799	0.00583	0.0068	0.0078	0.009	0.0104
x1 = 1.045e-05, x2 = 0	0.00469	0.0053	0.0058	0.0065	0.0071
x1 = 1.142e-05, x2 = 0.0009002	0.00547	0.00629	0.0071	0.0081	0.0092
x1 = 1.166e-05, x2 = 0.001799	0.0062	0.00723	0.0083	0.0096	0.011
x1 = 1.207e-05, x2 = 0	0.00516	0.0058	0.0064	0.0071	0.0079
x1 = 1.287e-05, x2 = 0.0009002	0.00582	0.00669	0.0076	0.0086	0.0098
x1 = 1.312e-05, x2 = 0.001799	0.0066	0.00763	0.0088	0.0101	0.0117
x1 = 1.351e-05, x2 = 0	0.00562	0.00631	0.007	0.0077	0.0085
x1 = 1.414e-05, x2 = 0.0009002	0.00617	0.00708	0.008	0.0091	0.0103
x1 = 1.476e-05, x2 = 0.001799	0.00697	0.0081	0.0093	0.0107	0.0122
x1 = 1.478e-05, x2 = 0	0.00603	0.0068	0.0075	0.0083	0.0092
x1 = 1.54e-05, x2 = 0.0009002	0.00651	0.0075	0.0084	0.0096	0.0108
x1 = 1.622e-05, x2 = 0	0.00644	0.0072	0.008	0.0089	0.0098
x1 = 1.622e-05, x2 = 0.001799	0.00735	0.0084	0.0097	0.0112	0.0128
x1 = 1.667e-05, x2 = 0.0009002	0.00687	0.0079	0.0089	0.0101	0.0114
x1 = 1.75e-05, x2 = 0.001799	0.00771	0.0088	0.0102	0.0117	0.0133
x1 = 1.766e-05, x2 = 0	0.00687	0.0077	0.0085	0.0094	0.0104

CCCCn1cc[n+](CCOCCOCCOCCOCC[n+]2ccn(CCCC)c2)c1.N#C[N-]C#N.N#C[N-]C#N + CC[n+]1ccn(C)c1.N#C[N-]C#N + O=S(=O)([N-]S(=O)(=O)C(F)(F)F)C(F)(F)F.[Li+]
100 kPa, x1 = 0.2104, x2 = 0.6943
Details	electrical conductivity [S/m]
298 K	0.471
303 K	0.549
313 K	0.79
323 K	1.05
333 K	1.37
343 K	1.67

COP(=O)([O-])OC.Cn1cc[n+](C)c1 + CN(CCO)CCO + O
Details	viscosity [mPa·s]
343.15 K, x2 = 0.4346, x3 = 0.3656	10.65

O=C(O)C(F)(F)C(F)(F)C(F)(F)C(F)(F)F + CC[n+]1ccn(C)c1.[Cl-]
102 kPa
Details	viscosity [mPa·s]
293.15 K, x2 = 0.6636	295
303.15 K, x2 = 0.3346	24.2
313.15 K, x2 = 0.3346	17.41
318.15 K, x2 = 0.5026	31.7
323.15 K, x2 = 0.5026	26.6
333.15 K, x2 = 0.5026	19.35
333.15 K, x2 = 0.6636	39.1
338.15 K, x2 = 0.3346	8.91
338.15 K, x2 = 0.5026	16.68
348.15 K, x2 = 0.5026	12.76
353.15 K, x2 = 0.3346	6.42

CCC(=O)[O-].C[NH+](C)Cc1ccccc1 + CN(C)C=O
viscosity [mPa·s], 101 kPa
Details	293.15 K	298.15 K	303.15 K	308.15 K	313.15 K	318.15 K	323.15 K	328.15 K
x1 = 0.006283	0.957	0.915	0.878	0.846	0.817	0.79	0.767	0.745
x1 = 0.009868	0.965	0.923	0.885	0.852	0.822	0.795	0.771	0.749
x1 = 0.01556	0.974	0.93	0.893	0.858	0.828	0.8	0.776	0.753
x1 = 0.01941	0.985	0.94	0.901	0.866	0.834	0.807	0.781	0.758
x2 = 0.9599	1.036	0.986	0.94	0.9	0.865	0.834	0.806	0.781
x2 = 0.9647	1.025	0.975	0.932	0.893	0.858	0.828	0.801	0.776
x2 = 0.9703	1.012	0.964	0.922	0.884	0.851	0.821	0.794	0.77
x2 = 0.9751	0.997	0.95	0.91	0.873	0.841	0.813	0.787	0.764

CC(=O)[O-].CCCC[N+](CCCC)(CCCC)CCCC + CCCCCCCCCCCCOS(=O)(=O)[O-].[Na+] + O
viscosity [mPa·s], 100 kPa
Details	x2 = 1.81e-06, x1 = 0.0001802	x2 = 3.61e-06, x1 = 0.0001802	x2 = 5.42e-06, x1 = 0.0001802	x2 = 7.23e-06, x1 = 0.0001802	x2 = 9.04e-06, x1 = 0.0001802	x2 = 1.084e-05, x1 = 0.0001802	x2 = 1.265e-05, x1 = 0.0001802	x2 = 1.446e-05, x1 = 0.0001802	x2 = 1.626e-05, x1 = 0.0001802	x2 = 1.807e-05, x1 = 0.0001802
293.15 K	0.997	1	1.004	1.004	1.006	1.007	1.007	1.008	1.008	1.008
298.15 K	0.89	0.893	0.894	0.894	0.898	0.901	0.902	0.903	0.904	0.904
303.15 K	0.756	0.758	0.76	0.763	0.764	0.765	0.766	0.768	0.768	0.769
308.15 K	0.679	0.68	0.681	0.683	0.684	0.684	0.686	0.687	0.688	0.688
313.15 K	0.605	0.606	0.606	0.608	0.609	0.609	0.611	0.612	0.612	0.613
318.15 K	0.569	0.572	0.572	0.574	0.575	0.575	0.577	0.578	0.578	0.579

CN1CCCN(C)C1=O + CCCCCC[n+]1ccn(C)c1.[Cl-]
viscosity [mPa·s], 100 kPa
Details	288.15 K	293.15 K	298.15 K	303.15 K	308.15 K	313.15 K	318.15 K	323.15 K	328.15 K	333.15 K
x2 = 0	4	3.51	3.11	2.78	2.5	2.266	2.064	1.891	1.737	1.595
x2 = 0.1011	9.78	8.21	6.99	6.01	5.22	4.59	4.06	3.63	3.25	2.94
x2 = 0.1987	29.2	23.3	18.82	15.64	13.14	10.05	8.62	7.47	6.53	5.75
x2 = 0.3083	77.7	59.1	45.8	36.3	29.2	23.9	19.81	16.38	13.92	12.29
x2 = 0.3981	184	133.6	99.3	75.6	63.8	50.5	40.6	33	27.5	23.11
x2 = 0.4957	412	283	215	157.4	117.8	90.1	70.2	55.6	44.6	36.3
x2 = 0.6008	897	600	418	296	215	158	121	93.6	73.9	58.6
x2 = 0.6983	2019	1294	856	583	408	294	215	163.7	124.9	96.8
x2 = 0.7961	–	2416	1565	1044	708	496	357	261	196	148.4

CCC[NH3+].O=[N+]([O-])[O-] + CCCC[NH3+].O=[N+]([O-])[O-]
101 kPa, frequency 0.00293 MHz, x1 = 0.5
Details	electrical conductivity [S/m]
293.15 K	0.496
313.15 K	1.02
323.15 K	1.36

101 kPa, x1 = 0.5
Details	viscosity [mPa·s]
293.15 K	100.4
313.15 K	45.4
323.15 K	32.6
328.15 K	28.1
343.15 K	18.8

CCC[NH3+].O=[N+]([O-])[O-] + CC[NH3+].O=[N+]([O-])[O-]
101 kPa, frequency 0.00293 MHz, x2 = 0.5
Details	electrical conductivity [S/m]
293.15 K	1.2
303.15 K	1.67
318.15 K	2.53

101 kPa, x2 = 0.5
Details	viscosity [mPa·s]
293.15 K	64.5
303.15 K	44.1
318.15 K	27.1
353.15 K	11.5

COP(=O)([O-])OC.Cn1cc[n+](C)c1 + CO
Details	viscosity [mPa·s]
293.15 K, 101 kPa, x2 = 0.6018	20.02
293.15 K, 101 kPa, x2 = 0.8998	1.927
298.15 K, 101 kPa, x2 = 0	291
298.15 K, 101 kPa, x2 = 0.2977	86.2
298.15 K, 101 kPa, x2 = 0.3984	54.2
303.15 K, 101 kPa, x2 = 0.2009	95.3
303.15 K, 101 kPa, x2 = 0.5028	24.98
308.15 K, 101 kPa, x2 = 0.5028	21.1
308.15 K, 101.33 kPa, x2 = 0	139.5
318.15 K, 101 kPa, x2 = 0.1054	71.5
318.15 K, 101 kPa, x2 = 0.7027	5.83
323.15 K, 101 kPa, x2 = 0.2977	31.01
323.15 K, 101 kPa, x2 = 0.5028	13.63

CCCC[N+](C)(C)C.O=S(=O)([N-]S(=O)(=O)C(F)(F)F)C(F)(F)F + CC(O)C(C)O
Details	viscosity [mPa·s]
328.15 K, 101 kPa, x2 = 0	30
